# Patent publication US20260137819A1 (Radionetics Oncology, Inc., priority 2022, published 2026)
# Starred links: 1 amine or outer side, 2 acyl side, 3 side chain; linkers in the order of their positions; H or OH if unused. Non-standard residues stand in square brackets, D forms with d. Residues, ends and D or L forms follow the SMILES beside them. Groups on a side chain read outwards from the residue. *: point of attachment. X1 = COc1cc2c(cc1-c1cccc(N*)c1)-c1c(c(C(=O)N3CCOCC3(C)C)nn1-c1cc(Cl)cc(Cl)c1)CO2; DOTA = O=C(O)CN1CCN(CC(=O)O)CCN(CC(=O)*)CCN(CC(=O)O)CC1; Suc = O=C(CCC(=O)[*:2])[*:1]
# Biological target: T1, human follicle-stimulating hormone receptor (FSHR) (Homo sapiens, UniProt P23945)
# T1 construct: host or cells: CHO-K1
# T1 sequence (P23945 18-695): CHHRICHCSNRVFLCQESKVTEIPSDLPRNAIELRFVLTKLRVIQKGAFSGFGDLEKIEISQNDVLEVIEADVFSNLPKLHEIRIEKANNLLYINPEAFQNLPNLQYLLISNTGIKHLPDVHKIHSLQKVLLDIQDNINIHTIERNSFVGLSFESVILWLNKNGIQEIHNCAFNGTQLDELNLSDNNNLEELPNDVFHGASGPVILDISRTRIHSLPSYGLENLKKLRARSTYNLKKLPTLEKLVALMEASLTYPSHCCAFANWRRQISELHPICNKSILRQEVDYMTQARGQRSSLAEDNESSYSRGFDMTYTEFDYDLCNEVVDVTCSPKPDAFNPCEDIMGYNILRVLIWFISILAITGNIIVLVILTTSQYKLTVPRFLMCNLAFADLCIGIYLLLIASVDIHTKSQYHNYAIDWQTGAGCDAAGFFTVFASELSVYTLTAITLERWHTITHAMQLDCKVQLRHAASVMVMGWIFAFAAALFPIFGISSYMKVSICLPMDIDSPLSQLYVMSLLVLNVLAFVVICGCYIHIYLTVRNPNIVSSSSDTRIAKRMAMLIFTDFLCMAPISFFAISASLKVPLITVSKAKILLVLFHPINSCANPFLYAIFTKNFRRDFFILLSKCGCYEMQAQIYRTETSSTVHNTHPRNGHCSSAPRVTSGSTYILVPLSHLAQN
# Experiment: Measurement of agonist cAMP production by activation of human FSHR
# Assay type: cell-based
# Conditions: CHO-K1 human FSHR cells, 30 minutes at 37° C., HTRF cAMP kit; read-out: hFSHR Agonist cAMP EC50
# Procedure: Measurement of agonist cAMP production by activation of human FSHR
# Two days prior to the assay, 5,000 CHO—K1 human FSHR cells (Eurofins #95-0119C2) stably expressing the functional human follicle-stimulating hormone receptor were plated in a 96-well tissue culture-treated plate in growth media supplemented with the appropriate selection agent. […] The cells were incubated for 30 minutes at 37° C. (the final concentrations of the compound ranged from 0-10,000 nM). After the 30-minute incubation at 37° C., lysis buffer (HRTF CAMP kit, Cisbio #62AM5PEB)w as added directly to the cells and incubated for 30-minutes at room temperature. The diluted lysate was transferred and CAMP detection and visualization antibodies (HRTF CAMP kit, Cisbio #62AM5PEB) were added and incubated for 1-24 hours at room temperature. The time-resolved fluorescent signal was read with a Tecan M1000Pro (Tecan) multiplate reader. The intracellular cAMP concentrations were calculated by regression to a standard curve and were plotted vs. the concentration of the agonists. The concentration of test compound or FSH required to generate a half maximal response EC50 were calculated using standard curve-fitting methods. All data manipulations were performed using GraphPad Prism v9.3.1 (GraphPad, San Diego, CA).
row,EC50 [µM],Structure (SMILES)
1,0.01 to 0.1,COc1cc2c(cc1-c1cccc(NC(=O)CCC(=O)NCCCC[C@@H](NC(=O)[C@@H](CCC(=O)O)NC(=O)[C@@H](CCCNC(=N)N)NC(=O)[C@@H](C)NC(=O)CN3CCN(CC(=O)O)CCN(CC(=O)O)CCN(CC(=O)O)CC3)C(=O)N[C@H](CCCNC(=N)N)C(=O)N[C@H](CCCNC(=N)N)C(=O)N[C@H](C)C(N)=O)c1)-c1c(c(C(=O)N3CCOCC3(C)C)nn1-c1cc(Cl)cc(Cl)c1)CO2 [Compound 89] ({DOTA}-[dA][dR][dE][dK]([Suc-X1])[dR][dR][dA]-NH2)
2,0.01 to 0.1,"COc1cc2c(cc1-c1cncc(COCCOCCOCCOCCNC(=O)[C@H](CS(=O)(=O)O)NC(=O)CN3CCN(CC(=O)O)CCN(CC(=O)O)CCN(CC(=O)O)CC3)c1)-c1c(c(C(=O)N3CCOCC3(C)C)nn1-c1cc(Cl)cc(Cl)c1)CO2 [Compound 72, (R)-2,2′,2″-(10-(1-(5-(1-(3,5-dichlorophenyl)-3-(3,3-dimethylmorpholine-4carbonyl)-7-methoxy-1,4-dihydrochromeno|4,3-c|pyrazol-8-yl)pyridin-3-yl)-15,18-dioxo-16-(sulfomethyl)-2,5,8,11-tetraoxa-14,17-diazanonadecan-19-yl)-1,4,7,10-tetraazacyclododecane-1,4,7-triyl)triacetic acid]"
3,0.01 to 0.1,COc1cc2c(cc1-c1cccc(NC(=O)C[C@@H](NC(=O)CN3CCN(CC(=O)O)CCN(CC(=O)O)CCN(CC(=O)O)CC3)C(=O)O)c1)-c1c(c(C(=O)N3CCOCC3(C)C)nn1-c1cc(Cl)cc(Cl)c1)CO2 [Compound 30]
4,0.01 to 0.1,"COc1cc2c(cc1-c1cccc(/C(C)=N/OCCNC(=O)COCCOCCNC(=O)CN3CCN(CC(=O)O)CCN(CC(=O)O)CCN(CC(=O)O)CC3)c1)-c1c(c(C(=O)N3CCOCC3(C)C)nn1-c1cc(Cl)cc(Cl)c1)CO2 [Compound 41, (E)-2,2′,2″-(10-(1-(3-(1-(3,5-dichlorophenyl)-3-(3,3-dimethylmorpholine-4carbonyl)-7-methoxy-1,4-dihydrochromeno|4,3-c|pyrazol-8-yl)phenyl)-7,16-dioxo-3,9,12-trioxa-2,6,15-triazaheptadec-1-en-17-yl)-1,4,7,10-tetraazacyclododecane-1,4,7-triyl)triacetic acid]"
5,< 0.01,"COc1cc2c(cc1-c1cccc(NC(=O)CON=C3CN(C(=O)CN4CCN(CC(=O)O)CCN(CC(=O)O)CCN(CC(=O)O)CC4)C3)c1)-c1c(c(C(=O)N3CCOCC3(C)C)nn1-c1cc(Cl)cc(Cl)c1)CO2 [Compound 44, 2,2′,2″-(10-(2-(3-((2-((3-(1-(3,5-dichlorophenyl)-3-(3,3-dimethylmorpholine-4carbonyl)-7-methoxy-1,4-dihydrochromeno|4,3-c|pyrazol-8-yl)phenyl)amino)-2-oxoethoxy)imino)azetidin-1-yl)-2-oxoethyl)-1,4,7,10-tetraazacyclododecane-1,4,7-triyl)triacetic acid]"
6,< 0.01,COc1cc2c(cc1-c1cccc(NC(=O)NCCNC(=O)[C@H](N)CCCCNC(=O)CN3CCN(CC(=O)O)CCN(CC(=O)O)CCN(CC(=O)O)CC3)c1)-c1c(c(C(=O)N3CCOCC3(C)C)nn1-c1cc(Cl)cc(Cl)c1)CO2 [Compound 23]
7,0.01 to 0.1,"COc1cc2c(cc1-c1cncc(NC(=O)CCCNC(=O)CCOCCNC(=O)CN3CCN(CC(=O)O)CCN(CC(=O)O)CCN(CC(=O)O)CC3)c1)-c1c(c(C(=O)N3CCOCC3(C)C)nn1-c1cc(F)cc(F)c1)CO2 [Compound 57, 2,2′,2″-(10-(2-((2-(3-((4-((5-(1-(3,5-difluorophenyl)-3-(3,3-dimethylmorpholine-4-carbonyl)-7-methoxy-1,4-dihydrochromeno[4,3-c]pyrazol-8-yl)pyridin-3-yl)amino)-4-oxobutyl)amino)-3-oxopropoxy)ethyl)amino)-2-oxoethyl)-1,4,7,10-tetraazacyclododecane-1,4,7-triyl)triacetic acid--2,2,2-trifluoroacetic acid (1/1)]"
8,0.01 to 0.1,"COc1cc2c(cc1-c1cccc(NC(=O)NCCNC(=O)[C@H](N)CCCCNC(=O)CN3CCN(CC(=O)O)CCN(CC(=O)O)CCN(CC(=O)O)CC3)c1)-c1c(c(C(=O)N3CCOCC3(C)C)nn1-c1cc(Cl)cc(Cl)c1)CO2 [Compound 23A, indium (III) (R)-2,2′,2″-(10-(2-((5-amino-6-((2-(3-(3-(1-(3,5-dichlorophenyl)-3-(3,3-dimethylmorpholine-4-carbonyl)-7-methoxy-1,4-dihydrochromeno[4,3-c]pyrazol-8-yl)phenyl)ureido)ethyl)amino)-6-oxohexyl)amino)-2-oxoethyl)-1,4,7,10-tetraazacyclododecane-1,4,7-triyl)triacetate]"
9,0.01 to 0.1,"COc1cc2c(cc1-c1cccc(NC(=O)CCC(=O)N[C@H](C)C(=O)N[C@H](CCC(=O)O)C(=O)N[C@H](CCC(=O)O)C(=O)N[C@H](CCC(=O)O)C(=O)N[C@H](CCC(=O)O)C(=O)N[C@H](CCCCNC(=O)CN3CCN(CC(=O)O)CCN(CC(=O)O)CCN(CC(=O)O)CC3)C(=O)N[C@H](C)C(N)=O)c1)-c1c(c(C(=O)N3CCOCC3(C)C)nn1-c1cc(Cl)cc(Cl)c1)CO2 [Compound 92, 2,2′,2″-(10-((8R,11R,14R,17R,20R,23R)-8-(((R)-1-amino-1-oxopropan-2yl)carbamoyl)-11,14,17,20-tetrakis(2-carboxyethyl)-28-((3-(1-(3,5-dichlorophenyl)-3-(3,3-dimethylmorpholine-4-carbonyl)-7-methoxy-1,4-dihydrochromeno[4,3-c]pyrazol-8-yl)phenyl)amino)-23-methyl-2,10,13,16,19,22,25,28-octaoxo-3,9,12,15,18,21,24-heptaazaoctacosyl)-1,4,7,10-tetraazacyclododecane-1,4,7-triyl)triacetic acid] ({X1-Suc}-[dA][dE][dE][dE][dE][dK](DOTA)[dA]-NH2)"
10,< 0.01,COc1cc2c(cc1-c1cccc(NC(=O)CN(C)C(=O)CN(C)C(=O)CN(C)C(=O)CN(C)C(=O)CN(C)C(=O)CCNC(=O)CN3CCN(CC(=O)O)CCN(CC(=O)O)CCN(CC(=O)O)CC3)c1)-c1c(c(C(=O)N3CCOCC3(C)C)nn1-c1cc(Cl)cc(Cl)c1)CO2 [Compound 22]
11,0.01 to 0.1,"COc1cc2c(cc1-c1cncc(NC(=O)CCC(=O)N(CCOCCOCCC(=O)O)C3CCN(C(=O)CN4CCN(CC(=O)O)CCN(CC(=O)O)CCN(CC(=O)O)CC4)CC3)c1)-c1c(c(C(=O)N3CCOCC3(C)C)nn1-c1cc(F)cc(F)c1)CO2 [Compound 60, 2,2′,2″-(10-(2-(4-(N-(2-(2-(2-carboxyethoxy)ethoxy)ethyl)-4-((5-(1-(3,5-difluorophenyl)-3-(3,3-dimethylmorpholine-4-carbonyl)-7-methoxy-1,4-dihydrochromeno[4,3-c]pyrazol-8-yl)pyridin-3-yl)amino)-4-oxobutanamido)piperidin-1-yl)-2-oxoethyl)-1,4,7,10-tetraazacyclododecane-1,4,7-triyl)triacetic acid--formic acid (1/1)]"
12,0.01 to 0.1,"COc1cc2c(cc1-c1ccc(NC(=O)NCCOCCOCCOCCOCCOCCOCCNC(=O)CN3CCN(CC(=O)O)CCN(CC(=O)O)CCN(CC(=O)O)CC3)cc1)-c1c(c(C(=O)N(C)C(C)(C)C)nn1-c1cc(Cl)cc(Cl)c1)CO2 [Compound 5, 2,2′,2″-(10-(1-((4-(3-(tert-butyl(methyl)carbamoyl)-1-(3,5-dichlorophenyl)-7-methoxy-1,4-dihydrochromeno[4,3-c]pyrazol-8-yl)phenyl)amino)-1,24-dioxo-5,8,11,14,17,20-hexaoxa-2,23-diazapentacosan-25-yl)-1,4,7,10-tetraazacyclododecane-1,4,7-triyl)triacetic acid]"

row,Structure (SMILES),EC50 [µM]
1,COc1cc2c(cc1-c1cncc(NC(=O)CN(C)C(=O)CN(C)C(=O)CN(C)C(=O)CN(C)C(=O)CN(C)C(=O)CCNC(=O)CN3CCN(CC(=O)O)CCN(CC(=O)O)CCN(CC(=O)O)CC3)c1)-c1c(c(C(=O)N3CCOCC3(C)C)nn1-c1cc(F)cc(F)c1)CO2 [Compound 59],> 0.1
2,COc1cc2c(cc1-c1cccc(OCCCNC(=O)[C@@H](CCCNC(=N)N)NC(=O)CCNC(=O)CN3CCN(CC(=O)O)CCN(CC(=O)O)CCN(CC(=O)O)CC3)c1)-c1c(c(C(=O)N3CCOCC3(C)C)nn1-c1cc(Cl)cc(Cl)c1)CO2 [Compound 73],< 0.01
